Experimental data taken from ChEMBL document CHEMBL1938273, “Design, synthesis and in vitro evaluation of novel bivalent S-adenosylmethionine analogues” (Bioorg Med Chem Lett, 2012).

Legend:
[1] = target: T1, Met repressor (Escherichia coli) (UniProt C3SIU2); experiment: Binding affinity to Escherichia coli metJ assessed as protein dimer-DNA complex formation using F-metC operator DNA by fluorescence anisotropy relative to 4-((((2R,3S,4R,5R)-5-(6-amino-9H-purin-9-yl)-3,4-dihydroxy-tetrahydrofuran-2-yl)methyl)(methyl)amino)-N-propylbutanamide
T1 sequence (whole entry): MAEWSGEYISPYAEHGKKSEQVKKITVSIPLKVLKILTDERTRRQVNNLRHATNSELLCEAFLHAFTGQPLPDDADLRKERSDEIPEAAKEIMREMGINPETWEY

[2] = target: T1, Met repressor (Escherichia coli); experiment: Binding affinity to Escherichia coli metJ assessed as protein dimer-DNA complex formation using F-metC operator DNA by fluorescence anisotropy relative to 5'-[{(3''S)-4''-Benzylamino-3''-amino-4''-oxobutyl}dimethylamino]-5'-deoxyadenosine iodide ditrifluoroacetic acid salt
[3] = target: T2, Met repressor (Escherichia coli, UniProt C3SIU2); experiment: Binding affinity to Escherichia coli metJ in presence of operator DNA complex by filter binding study
T2 sequence (C3SIU2 whole entry): T1 sequence (whole entry)

Compound	fold change (FC) [1]	fold change (FC) [2]	further results
CN(CCCC(=O)NCCCCn1nnc2c1CCCCCC2OCCNC(=O)CCCN(C)C[C@H]1O[C@@H](n2cnc3c(N)ncnc32)[C@H](O)[C@@H]1O)C[C@H]1O[C@@H](n2cnc3c(N)ncnc32)[C@H](O)[C@@H]1O (stereo partly specified)	13		
CN(CCCC(=O)NCCOC1CCCCCc2c1nnn2CCNC(=O)CCCN(C)C[C@H]1O[C@@H](n2cnc3c(N)ncnc32)[C@H](O)[C@@H]1O)C[C@H]1O[C@@H](n2cnc3c(N)ncnc32)[C@H](O)[C@@H]1O (mixture of isomers)	9.1		
C[S+](CC[C@H](N)C(=O)[O-])C[C@H]1O[C@@H](n2cnc3c(N)ncnc32)[C@H](O)[C@@H]1O (stereo partly specified) [ADEMETIONINE]			Kd [3]: 4 nM

More lines, main results first:

fold change (FC) [1]	fold change (FC) [2]	Compound	further results
	3.6	C[N+](C)(CC[C@H](N)C(=O)NCc1cccc(CNC(=O)[C@@H](N)CC[N+](C)(C)C[C@H]2O[C@@H](n3cnc4c(N)ncnc43)[C@H](O)[C@@H]2O)c1)C[C@H]1O[C@@H](n2cnc3c(N)ncnc32)[C@H](O)[C@@H]1O (mixture of isomers)	
21		CN(CCCC(=O)NCCCCCCNC(=O)CCCN(C)C[C@H]1O[C@@H](n2cnc3c(N)ncnc32)[C@H](O)[C@@H]1O)C[C@H]1O[C@@H](n2cnc3c(N)ncnc32)[C@H](O)[C@@H]1O	
	2.4	C[N+](C)(CC[C@H](N)C(=O)NCc1ccc(CNC(=O)[C@@H](N)CC[N+](C)(C)C[C@H]2O[C@@H](n3cnc4c(N)ncnc43)[C@H](O)[C@@H]2O)cc1)C[C@H]1O[C@@H](n2cnc3c(N)ncnc32)[C@H](O)[C@@H]1O (mixture of isomers)	
